Measured values taken from US20260248922A1, “TREATMENT OF SIGNS, SYMPTOMS AND/OR COMPLICATIONS OF VIRAL, BACTERIAL, PROTOZOAL, AND/OR FUNGAL INFECTIONS BY HIGH PENETRATION PRODRUGS” (priority 2022, published 2026).
Where two headings read alike, the source gives them in different places.

Experiments:
[1] = test system: H1N1 virus; test: H1N1 virus infection mouse model (Example 66); assay type: in vivo, mice; conditions: transdermal once a day
Procedure: A total of seventy mice (7 groups, 10/group) were used in this study. At day 0, mice were anesthetized with isoflurane and held in a dorsal recumbent position for administration of 0.1×TCID50/mouse virus (new batch) by internasal instillation, from day 2 post challenge, mice were received a single dose of different concentrations of test article or vehicle control once a day up to 15th day with dose initiation on day 2 post challenge. Group 1 served as an infected control group and was treated with vehicle (35% ethanol). […] Mice were observed following viral challenge for clinical signs of illness including body weights, health score, morbidity and mortality.
Lung lesions and peribronchiolitis of all deceased and surviving animals were characterized (Table 9).

[2] = rabbit
[3] = test system: H1N1 virus; test: H1N1 virus infection mouse model (Example 68); assay type: in vivo, mice; conditions: transdermal once a day
Procedure: A total of seventy mice (7 groups, 10/group) were used in this study. At day 0, mice were anesthetized with isoflurane and held in a dorsal recumbent position for administration of 0.1×TCID50/mouse virus (new batch) by internasal instillation, from day 2 post challenge, mice were received a single dose of different concentrations of test article or vehicle control once a day up to 15th day with dose initiation on day 2 post challenge. Group 1 served as an infected control group and was treated with vehicle (35% ethanol). 7% (pyrrolidin-2-yl)methyl 5-(2,4-difluorophenyl) salicylate hydrochloride in 35% ethanol (low dose: 25.0 mg/kg, group 2, mid dose: 49.9 mg/kg, group 3, and high dose: 99.8 mg/kg, group 4) and 7% (pyrrolidin-2-yl)methyl 5-(2,4-difluorophenyl) acetylsalicylate hydrochloride in 35% ethanol (low dose: 24.7 mg/kg, group 5, mid dose: 49.4 mg/kg, group 6, and high dose: 98.7 mg/kg, group 7) and vehicle (35% ethanol) were given by transdermal on the back of animal in an area of 2 cm×5 cm, 1.5 cm×3.5 cm, or 1 cm×2.5 cm for high, middle or low dose. Mice were observed following viral challenge for clinical signs of illness including body weights, health score, morbidity and mortality.
Lung lesions and peribronchiolitis of all deceased and surviving animals were characterized (Table 13).

[4] = test system: LPS-induced fever; test: Antipyretic activity, fever induced by LPS in rats; assay type: in vivo, Sprague Dawley rats
Procedure: The body temperature of rats was taken at 0 (2 hours after the challenge), 90 min, 180 min, and 270 min after the administration of the test compounds.

[5] = test system: H1N1 virus; test: H1N1 virus infection mouse model (Example 67); assay type: in vivo, mice; conditions: transdermal once a day
Procedure: A total of seventy mice (7 groups, 10/group) were used in this study. At day 0, mice were anesthetized with isoflurane and held in a dorsal recumbent position for administration of 0.1×TCID50/mouse virus (new batch) by internasal instillation, from day 2 post challenge, mice were received a single dose of different concentrations of test article or vehicle control once a day up to 15th day with dose initiation on day 2 post challenge. Group 1 served as an infected control group and was treated with vehicle (35% ethanol). 7% of (pyrrolidin-2-yl)methyl 2-[(2,3-dimethylphenyl)amino]benzoate hydrochloride in 35% ethanol (low dose: 25.0 mg/kg, group 2, mid dose: 50.1 mg/kg, group 3, and high dose: 100.1 mg/kg, group 4) and 7% of (pyrrolidin-2-yl)methyl α-methyl-4-(2-thienylcarbonyl)benzeneacetate hydrochloride in 35% ethanol (low dose: 24.9 mg/kg, group 5, mid dose: 49.8 mg/kg, group 6, and high dose: 99.6 mg/kg, group 7) and vehicle (35% ethanol) were given by transdermal on the back of animal in an area of 2 cm×5 cm, 1.5 cm×3.5 cm, or 1 cm×2.5 cm for high, middle or low dose. Mice were observed following viral challenge for clinical signs of illness including body weights, health score, morbidity and mortality.
Lung lesions and peribronchiolitis of all deceased and surviving animals were characterized (Table 11).

[6] = test system: paw edema; test: Antiinflammatory activity, carrageenan paw edema in rats; assay type: in vivo, Wistar Rats; conditions: topical, 100 mg/kg

Row | SMILES | The cumulative amount of test compounds ([2]; 1 h) | The cumulative amount of test compounds ([2]; 2 h) | The cumulative amount of test compounds ([2]; 4 h) | The cumulative amount of test compounds ([2]; 8 h) | further results
1 | CC(=O)O.CCN(CC)CCOC(=O)CC1=C(C)/C(=C/c2ccc([S+](C)[O-])cc2)c2ccc(F)cc21 (centres unmarked) [Example 8] |  |  |  |  | survival ([1]; group 5, low dose 25.5 mg/kg): 60%; survival ([1]; group 6, mid dose 50.9 mg/kg): 70%; survival ([1]; group 7, high dose 101.9 mg/kg): 50%
2 | CC(c1cc2ccccc2s1)N(O)C(N)=O (centres unmarked) [Parent drug-6] | 0.001 mg | 0.001 mg | 0.001 mg | 0.003 mg | 
3 | Cl.O=C(OCC1CCCN1)c1cc(-c2ccc(F)cc2F)ccc1O (centres unmarked) [Example 27, (pyrrolidin-2-yl)methyl 5-(2,4-difluorophenyl) salicylate hydrochloride] |  |  |  |  | survival ([3]; group 2, low dose 25.0 mg/kg): 30%; survival ([3]; group 3, mid dose 49.9 mg/kg): 50%; survival ([3]; group 4, high dose 99.8 mg/kg): 60%
4 | CCCc1c(OCCCS(=O)(=O)c2ccc(C(=O)CCC(=O)OCC3CCCN3)cc2)ccc(C(C)=O)c1O.Cl (centres unmarked) [Example 19] | 0.50 mg | 1.02 mg | 2.18 mg | 4.48 mg | 
5 | CC(C(=O)OCC1CCCN1)c1ccc(-c2ccccc2)c(F)c1.Cl (centres unmarked) [Example 15, (pyrrolidin-2-yl)methyl 2-(2-fluorobiphenyl-4-yl) propanoate hydrochloride] |  |  |  |  | survival ([1]; group 2, low dose 25.0 mg/kg): 40%; survival ([1]; group 3, mid dose 50.0 mg/kg): 50%; survival ([1]; group 4, high dose 100.0 mg/kg): 60%; body temperature (Mean) ([4]; T = 0 min (2 hours after LPS challenge), transdermal, 20 mg/kg): 38.30; body temperature (Mean) ([4]; T = 90 min, transdermal, 20 mg/kg): 37.37; body temperature (Mean) ([4]; T = 180 min, transdermal, 20 mg/kg): 36.78; body temperature (Mean) ([4]; T = 270 min, transdermal, 20 mg/kg): 36.65
6 | Cl.O=C(OCC1CCCN1)C(c1ccc(OCc2ccc3ccccc3n2)cc1)C1CCCC1 (centres unmarked) [Example 6, (pyrrolidin-2-yl)methyl 2-cyclopentyl-2-[4-(quinolin-2-ylmethoxy)phenyl]acetate hydrochloride] | 0.52 mg | 1.03 mg | 2.10 mg | 4.19 mg | 
7 | Cc1cccc(Nc2ccccc2C(=O)OCC2CCCN2)c1C.Cl (centres unmarked) [Example 17, (pyrrolidin-2-yl)methyl 2-[(2,3-dimethylphenyl)amino]benzoate hydrochloride] |  |  |  |  | survival ([5]; group 2, low dose 25.0 mg/kg): 30%; survival ([5]; group 3, mid dose 50.1 mg/kg): 50%; survival ([5]; group 4, high dose 100.1 mg/kg): 50%
8 | CC(C)c1ccc2c(c1)c(SC(C)(C)C)c(CC(C)(C)C(=O)O)n2Cc1ccc(Cl)cc1 [Parent drug-2] | 0.001 mg | 0.001 mg | 0.001 mg | 0.003 mg | 
9 | O=C(O)C(c1ccc(OCc2ccc3ccccc3n2)cc1)C1CCCC1 (centres unmarked) [Parent drug-5] | 0.001 mg | 0.001 mg | 0.001 mg | 0.002 mg | 
10 | CN(C)C(=O)CCS[C@H](SCCC(=O)O)c1cccc(/C=C/c2ccc3ccc(Cl)cc3n2)c1 [Parent drug-4] | 0.001 mg | 0.001 mg | 0.001 mg | 0.002 mg | 
11 | CC(C(=O)OCC1CCCN1)c1ccc(C(=O)c2cccs2)cc1.Cl (stereo not drawn) [Example 33, (pyrrolidin-2-yl)methyl α-methyl-4-(2-thienylcarbonyl)benzeneacetate hydrochloride] |  |  |  |  | survival ([5]; group 5, low dose 24.9 mg/kg): 60%; survival ([5]; group 6, mid dose 49.8 mg/kg): 50%; survival ([5]; group 7, high dose 99.6 mg/kg): 40%
12 | CCN(CC)CCOC(=O)CC1(CS[C@H](CCc2ccccc2C(C)(C)O)c2cccc(C=Cc3ccc4ccc(Cl)cc4n3)c2)CC1.Cl [Example 3] | 0.36 mg | 0.78 mg | 1.77 mg | 3.87 mg | 
13 | CC(C)Cc1ccc(C(C)C(=O)O)cc1 (centres unmarked) [Ibuprofen, reference compound] |  |  |  |  | body temperature (Mean) ([4]; T = 0 min (2 hours after LPS challenge), group C, topical, 100 mg/kg, 7% in 70% ethanol): 38.18; body temperature (Mean) ([4]; T = 90 min, group B, oral, 100 mg/kg): 38.01; body temperature (Mean) ([4]; T = 90 min, group C, topical, 100 mg/kg, 7% in 70% ethanol): 38.26; body temperature (Mean) ([4]; T = 180 min, group B, oral, 100 mg/kg): 37.34; body temperature (Mean) ([4]; T = 180 min, group C, topical, 100 mg/kg, 7% in 70% ethanol): 38.27; body temperature (Mean) ([4]; T = 270 min, group B, oral, 100 mg/kg): 37.02; body temperature (Mean) ([4]; T = 270 min, group C, topical, 100 mg/kg, 7% in 70% ethanol): 37.98; antipyretic activity (in words) ([4]; topical, 100 mg/kg): did not show any antipyretic activity; anti-inflammatory activity (in words) [6]: did not show any anti-inflammatory activity
14 | O=C(O)Cc1ccccc1Nc1c(Cl)cccc1Cl [Parent drug-8] | 0.000 mg | 0.001 mg | 0.002 mg | 0.003 mg | 
15 | CCCc1c(OCCCS(=O)(=O)c2ccc(C(=O)CCC(=O)O)cc2)ccc(C(C)=O)c1O [Parent drug-1] | 0.000 mg | 0.001 mg | 0.001 mg | 0.002 mg | 
16 | CC(=O)Oc1ccc(-c2ccc(F)cc2F)cc1C(=O)OCC1CCCN1.Cl (centres unmarked) [Example 28, (pyrrolidin-2-yl)methyl 5-(2,4-difluorophenyl) acetylsalicylate hydrochloride] |  |  |  |  | survival ([3]; group 5, low dose 24.7 mg/kg): 40%; survival ([3]; group 6, mid dose 49.4 mg/kg): 60%; survival ([3]; group 7, high dose 98.7 mg/kg): 70%
17 | CN(C)C(=O)CCSC(SCCC(=O)OCC1CCCN1)c1cccc(/C=C/c2ccc3ccc(Cl)cc3n2)c1.Cl (centres unmarked) [Example 7, (pyrrolidin-2-yl)methyl 3-[[3-[(E)-2-(7-chloroquinolin-2-yl)ethenyl]phenyl]-[3-(dimethylamino)-3-oxopropyl]sulfanylmethyl]sulfanylpropanoate hydrochloride] | 0.46 mg | 1.01 mg | 2.09 mg | 4.29 mg | 
